In patent publication US8968703B2, “13C-MR detection using hyperpolarised 13C-fructose” (GE Healthcare Limited, priority 2009, dated 2015):

Tests used:
[1] = 11.7T NMR studies of hyperpolarized [2-13C]-fructose (T1, percent polarization); type: physicochemical; conditions: for T1 sec (11.7T): C2 fructose carbon, mono-exponential fit of hyperpolarized signal decay; for % pol (corrected): percent polarization corrected for transfer time using T1 decay
Method: A 4.0M solution of 2-[^13C]-fructose (Isotec, Miamisburg, Ohio) in water containing 15 mM OX063 trityl radical (Oxford Instruments) was hyperpolarized on a Hypersense instrument (Oxford Instruments) as described by Ardenkjaer-Larsen et al (2003) Increase in signal-to-noise ratio of >10,000 times in liquid-state NMR. Proc. Natl. Acad. Sci. U.S.A. 100, 10158-10163. The frozen sample was dissolved in 1× phosphate buffered saline (PBS), with a resultant pH of 7.6, and transferred immediately to a 10 mm NMR tube.
NMR studies were performed on an 11.7T Varian INOVA spectrometer (125 MHz ^13C, Varian Instruments) using a 10 mm ^15N/[…]/^13C triple-tuned direct detect probe. Initially, a thermal spectrum was acquired for a natural abundance fructose sample in 1×PBS buffer at 37° C. (nt=9000, sw=30000, np=30000, TR=3.5 s, acq time=0.5 s) using an Ernst angle pulse (45 degrees). […] The C2 carbon resonances correspond to the isomeric distribution of the two ring forms (pyranose and furanose forms) of the fructose molecule.
For the acquisition of hyperpolarized ^13C spectra […] pulse hyperpolarized ^13C NMR spectra (1 average, spectral window=30000 Hz, number of points=30000, TR=3.5 s, acq time=0.5 s, total acq time=2 min 55 s) were acquired using a 5° pulse and proton decoupled using a waltz-16 decoupling scheme. Hyperpolarized studies were followed by acquisition of thermal data using nearly identical parameters, using a 90° tip angle and a repeat time of roughly four T1's (TR=76 s, nt=64). T1's were determined by performing a mono-exponential fit to the signal decay curve of the hyperpolarized compounds. Signal enhancement percent polarizations were calculated by comparing the hyperpolarized and thermal data sets and accounting for differences in tip angle and transients obtained. Solid state polarizations were calculated by correcting the enhancement for the transfer time from the polarizer using the T1 decay.

[2] = 3T T1 studies of hyperpolarized [2-13C]-fructose in solution; type: physicochemical; conditions: for T1 sec (3T): C2 fructose carbon, solution spectra, monoexponential fit
Method: T1 studies were performed using a 3T GE Signa™ scanner (GE Healthcare. Waukesha, Wis.) equipped with the MNS (multinuclear spectroscopy) hardware package. Solution spectra were acquired using a 5° non localised pulse, TR=3 s and fit to a monoexponential. The RF coil used in these experiments was a dual-tuned ^1H-^13C coil with a quadrature ^13C channel and linear ^1H channel construction based on an earlier design and also used in ^13C-pyruvate mouse imaging studies. For animal studies, T2-weighted fast spin echo images were acquired prior to MRSI studies to denote anatomy and place voxels on the region of interest. In vivo MRSI studies were carried out using a compressed sensing double spin 3D MRSI acquisition scheme as previously published by Hu S et al. (2008) Compressed sensing for resolution enhancement of hyperpolarized 13C flyback 3D-MRSI. J Magn Reson 192, 258-264, with a TE=140 ms. TR=215 ms, FOV=8 cm×8 cm, and 16×8 resolution. 500 μl of 80 mM [2-^13C]-fructose was injected similar to described by Albers M J et al. (2008) Hyperpolarized 13C lactate, pyruvate and alanine: noninvasice biomarkers for prostate cancer detection and grading. Cancer Res. 68, 8607-8615, for [1-^13C] pyruvate in a transgenic model of prostate cancer (TRAMP). These injections were compared to the standard [1-^13C]-pyruvate injection for the same voxel in a tumor region of interest.

[3] = system: hexokinase; assay: NMR study of enzymatic conversion of hyperpolarized fructose to fructose-6-phosphate; type: biochemical; conditions: 400 U hexokinase
Method: For NMR studies of the enzymatic conversion of Fructose to fructose-6-phosphate, hyperpolarized [2-^13C]-fructose was reacted with 400 U of hexokinase (Sigma Aldrich) in the presence of 15 mM ATP, 50 mM TRIS and 13 mM MgCl2. The labelling and mechanism for transport and metabolism is shown below (FIG. 1), though in this enzymatic study the transport element has been removed and the enzyme activity was independently measured. Peaks corresponding to fructose-6-phosphate were identified using a natural abundance carbon spectrum, using a similar set of experimental parameters.

[4] = 11.7T NMR studies of hyperpolarized [2-13C]-fructose (T1, percent polarization); type: physicochemical; conditions: pH ranges 5.9-7.8

Compound: OC[C@H]1O[C@@](O)(CO)[C@@H](O)[C@@H]1O [A-fructofuranose]
- T1 sec (11.7T) [1]: 15.5 ± 0.5 s
- % pol (corrected) [1]: 11.8 ± 2.0%
- T1 sec (3T) [2]: 13.4 ± 0.4 s

Compound: O=[13C](CO)[C@@H](O)[C@H](O)[C@H](O)CO [fructose, [2-^13C]-fructose]
- Time to conversion to fructose-6-phosphate after addition to hexokinase ([3]; 15 mM ATP, 50 mM TRIS, 13 mM MgCl2): ≤ 5 s
- Conversion of fructose to fructose-6-phosphate in thermal spectrum ([3]; thermal spectrum acquired over 85 minutes post DNP): fully converted
- Relaxation times (T1) ([1]; at 11.7 T): 15 to 16 s
- Percent polarization, average over isomers ([1]; averages for the isomers of fructose): ~12%
- Isomeric ratio of fructose pyranose to furanose in solution ([1]; in solution): approximately 77/23
- T1 dependence on pH [4]: no T1 dependence on pH
- Relaxation times (T1) ([2]; at 3T): 13 to 14 s

Compound: OC[C@H]1O[C@](O)(CO)[C@@H](O)[C@@H]1O [β-fructofuranose]
- T1 sec (11.7T) [1]: 15.8 ± 0.5 s
- % pol (corrected) [1]: 11.6 ± 2.5%
- T1 sec (3T) [2]: 13.4 ± 2.5 s

Compound: OC[C@@]1(O)OC[C@@H](O)[C@@H](O)[C@@H]1O [β-fructopyranose]
- T1 sec (11.7T) [1]: 16.3 ± 0.5 s
- % pol (corrected) [1]: 12.0 ± 2.2%
- T1 sec (3T) [2]: 14.5 ± 0.3 s
